Measurements taken from US9198433B2, “Substituted benzene fungicides” (E I DU PONT DE NEMOURS AND COMPANY, priority 2007, dated 2015).
Like-named read-outs stand apart in the source and are kept apart here. Marks after values point to notes of the source that are not given here.

What was measured:
Format in all cases: in vivo
[1] = test system: Erysiphe graminis f. sp. tritici; experiment: Test A: wheat powdery mildew, preventive spray on wheat seedlings, disease rating
In short: (§1)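 Applied as preventive foliar sprays to wheat seedlings, to run-off. Formulation: acetone (3% of final volume) predissolution, then acetone/water 50/50 with surfactant at 250 ppm. Rates were 200 ppm except flagged values at 40 or 50 ppm.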

Pythium aphanidermatum = experiment: Test L: bluegrass pythium blight, preventive spray on bluegrass seedlings, disease rating
From the text: The test compounds were first dissolved in acetone in an amount equal to 3% of the final volume and then suspended at the desired concentration (in ppm) in acetone and purified water (50/50 mix) containing 250 ppm of the surfactant Trem® 014 (polyhydric alcohol esters). The resulting test suspensions were then used in Tests A-L. Spraying a 200 ppm test suspension to the point of run-off on the test plants was the equivalent of an application rate of 500 g/ha. The test suspension was sprayed to the point of run-off on bluegrass seedlings. […] A dash (-) indicates no test results. All results are for 200 ppm except where followed by an “*”, which indicates 40 ppm or “**”, which indicates 50 ppm.

Septoria tritici = experiment: Test D: wheat leaf blotch, preventive spray on wheat seedlings, disease rating
In short: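 Preventive test: one day after run-off spraying (200 ppm, equal to 500 g/ha, unless marked 40 or 50 ppm; acetone/water plus 250 ppm Trem 014), seedlings received S. tritici spore inoculum. Disease scored after 48 h at 24 °C in saturated air and 19 further days at 20 °C.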

Septoria nodorum = experiment: Test C: wheat glume blotch, preventive spray on wheat seedlings, disease rating
In short: as §1

Phytophthora infestans = conditions: 200 ppm; tomato late blight
Botrytis cinerea = experiment: Test F: tomato Botrytis, preventive spray on tomato seedlings, disease rating; conditions: 200 ppm
In short: (§2)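 Disease ratings follow a preventive run-off spray of tomato seedlings. Compounds were first dissolved in acetone (3% of volume), then suspended in 50/50 acetone/water containing 250 ppm Trem 014. Test level 200 ppm (equivalent to 500 g/ha) except where marked * for 40 ppm or ** for 50 ppm.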

Fusarium graminearum = conditions: wheat head scab
Rhizoctonia oryzae = experiment: Test I: turf brown patch, preventive spray on creeping bent grass seedlings, disease rating; conditions: 200 ppm
From the text: The test compounds were first dissolved in acetone in an amount equal to 3% of the final volume and then suspended at the desired concentration (in ppm) in acetone and purified water (50/50 mix) containing 250 ppm of the surfactant Trem® 014 (polyhydric alcohol esters). The resulting test suspensions were then used in Tests A-L. Spraying a 200 ppm test suspension to the point of run-off on the test plants was the equivalent of an application rate of 500 g/ha. The test suspension was sprayed to the point of run-off on creeping bent grass seedlings. […] A dash (-) indicates no test results. All results are for 200 ppm except where followed by an “*”, which indicates 40 ppm or “**”, which indicates 50 ppm.

[2] = test system: Puccinia recondita f. sp. tritici; experiment: Test B: wheat leaf rust, preventive spray on wheat seedlings, disease rating
In short: as §1

Plasmopara viticola = experiment: Test K: grape downy mildew, spray on grape seedlings after inoculation, disease rating; conditions: 200 ppm
From the text: The test compounds were first dissolved in acetone in an amount equal to 3% of the final volume and then suspended at the desired concentration (in ppm) in acetone and purified water (50/50 mix) containing 250 ppm of the surfactant Trem® 014 (polyhydric alcohol esters). The resulting test suspensions were then used in Tests A-L. Spraying a 200 ppm test suspension to the point of run-off on the test plants was the equivalent of an application rate of 500 g/ha. Grape seedlings were inoculated with a spore suspension of Plasmopara viticola (the causal agent of grape downy mildew) and incubated in a saturated atmosphere at 20° C. for 24 h. After a short drying period, the test suspension was sprayed to the point of run-off on the grape seedlings and then moved to a growth chamber at 20° C. for 6 days, after which the test units were placed back into a saturated atmosphere at 20° C. for 24 h. Upon removal, disease ratings were made. […] A dash (-) indicates no test results. All results are for 200 ppm except where followed by an “*”, which indicates 40 ppm or “**”, which indicates 50 ppm.

Alternaria solani = experiment: Test H: tomato early blight, preventive spray on tomato seedlings, disease rating
In short: as §2

| Structure (SMILES) | Percentage Disease Control, Test A ([1]; 200 ppm) [%] | Percentage Disease Control, Test L (Pythium aphanidermatum; 200 ppm) [%] | Percentage Disease Control, Test D (Septoria tritici; 40 ppm (*)) | Percentage Disease Control, Test C (Septoria nodorum; 200 ppm) [%] | Percentage Disease Control, Test J (Phytophthora infestans) [%] | Percentage Disease Control, Test F (Botrytis cinerea) [%] | Percentage Disease Control, Test E (Fusarium graminearum; 200 ppm) [%] | Percentage Disease Control, Test I (Rhizoctonia oryzae) [%] | Percentage Disease Control, Test B ([2]; 200 ppm) [%] | Percentage Disease Control, Test K (Plasmopara viticola) [%] | Percentage Disease Control, Test H (Alternaria solani; 200 ppm) [%] | Percentage Disease Control, Test A ([1]; 40 ppm (*)) | Percentage Disease Control, Test L (Pythium aphanidermatum; 40 ppm (*)) | Percentage Disease Control, Test B ([2]; 40 ppm (*)) | Percentage Disease Control, Test H (Alternaria solani; 40 ppm (*)) | Percentage Disease Control, Test C (Septoria nodorum; 40 ppm (*)) | Percentage Disease Control, Test E (Fusarium graminearum; 40 ppm (*)) | Percentage Disease Control, Test D (Septoria tritici; 200 ppm) [%] |
| --- | --- | --- | --- | --- | --- | --- | --- | --- | --- | --- | --- | --- | --- | --- | --- | --- | --- | --- |
| COC(=O)NCc1cc(C(C)=NOCC(C)[Si](C)(C)C)ccc1Cl (stereo not drawn) [Compound 2, methyl N-[[2-chloro-5-[1-[[2-(trimethylsilyl)propoxy]imino]ethyl]phenyl]-methyl]carbamate] | 100 | 0 | 91* % | 99 | 0 | 0 | 100 | 0 | 100 | 70 |  |  |  |  |  |  |  |  |
| COC(=O)NCc1cc(-c2ccn(CCC(C)C)n2)ccc1Cl [Cmpd 22] |  |  | 85* % | 99 | 50 | 0 | 99 | 0 |  | 99 | 0 | 99* % | 94* % | 95* % |  |  |  |  |
| COC(=O)NCc1cc(C(C)=NOC[Si](C)(C)c2ccc(Cl)cc2)ccc1Cl [Compound 5] | 99 | 0 | 100* % | 99 | 0 | 0 | 0 | 0 | 100 | 23 | 77 |  |  |  |  |  |  |  |
| COC(=O)NCc1cc(-c2ccn(-c3ccccc3)n2)ccc1Cl [Cmpd 34] |  | 0 | 100* % |  | 0 | 0 |  | 0 |  | 78 |  | 97* % |  | 100* % | 90* % | 97* % | 98* % |  |
| C=C(CON=C(C)c1ccc(Cl)c(CNC(=O)OC)c1)C[Si](C)(C)C [Compound 3] | 98 | 0 | 16* % | 99 | 0 | 0 | 87 | 0 | 100 | 26 |  |  |  |  |  |  |  |  |
| COC(=O)NCc1cc(-c2ccn(C)n2)ccc1Cl [Cmpd 28] | 54 | 0 |  | 0 | 0 | 0 | 0 | 0 | 88 | 25 | 28 |  |  |  |  |  |  | 86 |
| COC(=O)NOc1cc(-c2cccc(OC(F)(F)F)c2)ccc1Cl [Cmpd 18] |  | 98 | 98* % |  | 89 | 0 | 100 | 0 |  | 81 | 70 | 100* % |  | 99* % |  | 99* % |  |  |
